In patent US12077503B2, “Substituted cyclic amides and their use as herbicides” (FMC CORPORATION, priority 2015, dated 2024):

Tests used:
Type in all cases: in vivo
[1] = system: ivy-leaved morning glory (Ipomoea hederacea); assay: Test G Post-Emergence Protocol; conditions: Ipomoea, post-emergence, 312 h, read-out: Morningglory, Ivy-leaved damage rating; for pest or weed control at 15.625 g/ha: 15.625 g ai/ha, evaluated after 13 days (100=total damage to plant; 0=no damage to plant); for pest or weed control at 62.5 g/ha: 62.5 g ai/ha; for pest or weed control at 62.5 g/ha / pest or weed control at 250 g/ha: evaluated after 13 days, 100=total damage to plant, 0=no damage to plant; for pest or weed control at 250 g/ha: 250 g ai/ha
How it was run: (§1)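 Seedlings grown 8 days in soil in a glasshouse (24/16 °C day/night, 14 h light, 65% humidity) were sprayed post-emergence with compound in acetone/water 50:50 plus 0.5% Tween 20 at 15.625, 62.5 or 250 g/ha. Damage was scored after 13 days on a 0–100 scale (100 = total damage).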

[2] = system: redroot pigweed (Amaranthus retroflexus); assay: Test G Post-Emergence Protocol; conditions: Amaranthus retroflexus, post-emergence, 312 h, read-out: Pigweed, Redroot damage rating; for pest or weed control at 15.625 g/ha: 15.625 g ai/ha, evaluated after 13 days (100=total damage to plant; 0=no damage to plant); for pest or weed control at 62.5 g/ha: 62.5 g ai/ha; for pest or weed control at 62.5 g/ha / pest or weed control at 250 g/ha: evaluated after 13 days, 100=total damage to plant, 0=no damage to plant; for pest or weed control at 250 g/ha: 250 g ai/ha
How it was run: as §1

corn (Zea mays) [3] = assay: Test G Post-Emergence Protocol; conditions: Zea mays, post-emergence, 312 h, read-out: Corn damage rating; for plant injury at 15.625 g/ha: 15.625 g ai/ha, evaluated after 13 days (100=total damage to plant; 0=no damage to plant); for plant injury at 62.5 g/ha: 62.5 g ai/ha; for plant injury at 62.5 g/ha / plant injury at 250 g/ha: evaluated after 13 days, 100=total damage to plant, 0=no damage to plant; for plant injury at 250 g/ha: 250 g ai/ha
How it was run: as §1

[4] = system: barnyardgrass (Echinochloa crus-galli); assay: Test G Post-Emergence Protocol; conditions: Echinochloa crus-galli, post-emergence, 312 h, read-out: Barnyardgrass damage rating; for pest or weed control at 15.625 g/ha: 15.625 g ai/ha, evaluated after 13 days (100=total damage to plant; 0=no damage to plant); for pest or weed control at 62.5 g/ha: 62.5 g ai/ha; for pest or weed control at 62.5 g/ha / pest or weed control at 250 g/ha: evaluated after 13 days, 100=total damage to plant, 0=no damage to plant; for pest or weed control at 250 g/ha: 250 g ai/ha
How it was run: as §1

[5] = system: giant foxtail (Setaria faberi); assay: Test G Post-Emergence Protocol; conditions: Setaria faberi, post-emergence, 312 h, read-out: Foxtail, Giant damage rating; for pest or weed control at 15.625 g/ha: 15.625 g ai/ha, evaluated after 13 days (100=total damage to plant; 0=no damage to plant); for pest or weed control at 62.5 g/ha: 62.5 g ai/ha; for pest or weed control at 62.5 g/ha / pest or weed control at 250 g/ha: evaluated after 13 days, 100=total damage to plant, 0=no damage to plant; for pest or weed control at 250 g/ha: 250 g ai/ha
How it was run: as §1

[6] = system: velvetleaf (Abutilon theophrasti); assay: Test G Post-Emergence Protocol; conditions: Abutilon theophrasti, post-emergence, 312 h, read-out: Velvetleaf damage rating; for pest or weed control at 15.625 g/ha: 15.625 g ai/ha, evaluated after 13 days (100=total damage to plant; 0=no damage to plant); for pest or weed control at 62.5 g/ha: 62.5 g ai/ha; for pest or weed control at 62.5 g/ha / pest or weed control at 250 g/ha: evaluated after 13 days, 100=total damage to plant, 0=no damage to plant; for pest or weed control at 250 g/ha: 250 g ai/ha
How it was run: as §1

[7] = system: ivy-leaved morning glory (Ipomoea hederacea); assay: Test G Pre-Emergence Protocol; conditions: Ipomoea, pre-emergence, 312 h, evaluated after 13 days; for pest or weed control at 15.625 g/ha: 15.625 g ai/ha; for pest or weed control at 15.625 g/ha / pest or weed control at 250 g/ha: read-out: Morningglory, Ivy-leaved damage rating (100=total damage to plant; 0=no damage to plant); for pest or weed control at 62.5 g/ha: 62.5 g ai/ha, 100=total damage to plant, 0=no damage to plant, read-out: Morningglory, Ivy-leaved damage rating; for pest or weed control at 250 g/ha: 250 g ai/ha
How it was run: (§2)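 One day after sowing, pots are treated with a spray of test compound formulated in acetone/water 50:50 plus 0.5% Tween 20, giving 15.625, 62.5 or 250 g/ha. Evaluation on a 0–100 damage scale follows 13 days of glasshouse growth.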

[8] = system: redroot pigweed (Amaranthus retroflexus); assay: Test G Pre-Emergence Protocol; conditions: Amaranthus retroflexus, pre-emergence, 312 h, evaluated after 13 days; for pest or weed control at 15.625 g/ha: 15.625 g ai/ha; for pest or weed control at 15.625 g/ha / pest or weed control at 250 g/ha: read-out: Pigweed, Redroot damage rating (100=total damage to plant; 0=no damage to plant); for pest or weed control at 62.5 g/ha: 62.5 g ai/ha, 100=total damage to plant, 0=no damage to plant, read-out: Pigweed, Redroot damage rating; for pest or weed control at 250 g/ha: 250 g ai/ha
How it was run: as §2

corn (Zea mays) [9] = assay: Test G Pre-Emergence Protocol; conditions: Zea mays, pre-emergence, 312 h, evaluated after 13 days; for plant injury at 15.625 g/ha: 15.625 g ai/ha; for plant injury at 15.625 g/ha / plant injury at 250 g/ha: read-out: Corn damage rating (100=total damage to plant; 0=no damage to plant); for plant injury at 62.5 g/ha: 62.5 g ai/ha, 100=total damage to plant, 0=no damage to plant, read-out: Corn damage rating; for plant injury at 250 g/ha: 250 g ai/ha
How it was run: as §2

[10] = system: barnyardgrass (Echinochloa crus-galli); assay: Test G Pre-Emergence Protocol; conditions: Echinochloa crus-galli, pre-emergence, 312 h, evaluated after 13 days; for pest or weed control at 15.625 g/ha: 15.625 g ai/ha; for pest or weed control at 15.625 g/ha / pest or weed control at 250 g/ha: read-out: Barnyardgrass damage rating (100=total damage to plant; 0=no damage to plant); for pest or weed control at 62.5 g/ha: 62.5 g ai/ha, 100=total damage to plant, 0=no damage to plant, read-out: Barnyardgrass damage rating; for pest or weed control at 250 g/ha: 250 g ai/ha
How it was run: as §2

[11] = system: giant foxtail (Setaria faberi); assay: Test G Pre-Emergence Protocol; conditions: Setaria faberi, pre-emergence, 312 h, evaluated after 13 days; for pest or weed control at 15.625 g/ha: 15.625 g ai/ha; for pest or weed control at 15.625 g/ha / pest or weed control at 250 g/ha: read-out: Foxtail, Giant damage rating (100=total damage to plant; 0=no damage to plant); for pest or weed control at 62.5 g/ha: 62.5 g ai/ha, 100=total damage to plant, 0=no damage to plant, read-out: Foxtail, Giant damage rating; for pest or weed control at 250 g/ha: 250 g ai/ha
How it was run: as §2

[12] = system: velvetleaf (Abutilon theophrasti); assay: Test G Pre-Emergence Protocol; conditions: Abutilon theophrasti, pre-emergence, 312 h, evaluated after 13 days; for pest or weed control at 15.625 g/ha: 15.625 g ai/ha; for pest or weed control at 15.625 g/ha / pest or weed control at 250 g/ha: read-out: Velvetleaf damage rating (100=total damage to plant; 0=no damage to plant); for pest or weed control at 62.5 g/ha: 62.5 g ai/ha, 100=total damage to plant, 0=no damage to plant, read-out: Velvetleaf damage rating; for pest or weed control at 250 g/ha: 250 g ai/ha
How it was run: as §2

Row | Structure (SMILES) | pest or weed control at 15.625 g/ha [1] [%] | pest or weed control at 62.5 g/ha [1] [%] | pest or weed control at 250 g/ha [1] [%] | pest or weed control at 15.625 g/ha [2] [%] | pest or weed control at 62.5 g/ha [2] [%] | pest or weed control at 250 g/ha [2] [%] | plant injury at 15.625 g/ha (corn (Zea mays) [3]) [%] | plant injury at 62.5 g/ha (corn (Zea mays) [3]) [%] | plant injury at 250 g/ha (corn (Zea mays) [3]) [%] | pest or weed control at 15.625 g/ha [4] [%] | pest or weed control at 62.5 g/ha [4] [%] | pest or weed control at 250 g/ha [4] [%] | pest or weed control at 15.625 g/ha [5] [%] | pest or weed control at 62.5 g/ha [5] [%] | pest or weed control at 250 g/ha [5] [%] | pest or weed control at 15.625 g/ha [6] [%] | pest or weed control at 62.5 g/ha [6] [%] | pest or weed control at 250 g/ha [6] [%] | pest or weed control at 15.625 g/ha [7] [%] | pest or weed control at 62.5 g/ha [7] [%] | also measured
1 | COc1cc(C2CN(C)C(=O)C2C(=O)Nc2cccc(F)c2F)cc(Cl)c1OC (stereo not drawn) [Compound 1704] | 30 | 20 | 70 | 0 | 10 | 10 | 0 | 20 | 80 | 40 | 70 | 80 | 70 | 80 | 80 | 0 | 0 | 20 | 0 | 0 | pest or weed control at 250 g/ha [7]: 30%; pest or weed control at 15.625 g/ha [8]: 0%; pest or weed control at 62.5 g/ha [8]: 20%; pest or weed control at 250 g/ha [8]: 0%; plant injury at 15.625 g/ha (corn (Zea mays) [9]): 0%; plant injury at 62.5 g/ha (corn (Zea mays) [9]): 50%; plant injury at 250 g/ha (corn (Zea mays) [9]): 80%; pest or weed control at 15.625 g/ha [10]: 40%; pest or weed control at 62.5 g/ha [10]: 70%; pest or weed control at 250 g/ha [10]: 80%; pest or weed control at 15.625 g/ha [11]: 50%; pest or weed control at 62.5 g/ha [11]: 80%; pest or weed control at 250 g/ha [11]: 80%; pest or weed control at 15.625 g/ha [12]: 0%; pest or weed control at 62.5 g/ha [12]: 0%; pest or weed control at 250 g/ha [12]: 10%
2 | CN1C[C@H](c2cccc(C(F)(F)F)c2)[C@@H](C(=O)Nc2cnccc2[S+](C)[O-])C1=O (mixture of isomers) [Compound 1752] | 0 | 0 | 0 | 0 | 0 | 0 | 0 | 0 | 0 | 0 | 0 | 0 | 0 | 0 | 0 | 0 | 0 | 0 | 0 | 0 | pest or weed control at 250 g/ha [7]: 0%; pest or weed control at 15.625 g/ha [8]: 0%; pest or weed control at 62.5 g/ha [8]: 0%; pest or weed control at 250 g/ha [8]: 0%; plant injury at 15.625 g/ha (corn (Zea mays) [9]): 0%; plant injury at 62.5 g/ha (corn (Zea mays) [9]): 0%; plant injury at 250 g/ha (corn (Zea mays) [9]): 0%; pest or weed control at 15.625 g/ha [10]: 0%; pest or weed control at 62.5 g/ha [10]: 0%; pest or weed control at 250 g/ha [10]: 20%; pest or weed control at 15.625 g/ha [11]: 0%; pest or weed control at 62.5 g/ha [11]: 0%; pest or weed control at 250 g/ha [11]: 20%; pest or weed control at 15.625 g/ha [12]: 0%; pest or weed control at 62.5 g/ha [12]: 0%; pest or weed control at 250 g/ha [12]: 0%
3 | CN1C[C@H](c2ccc(C(F)(F)F)cc2)[C@@H](C(=O)Nc2cccnc2[S+](C)[O-])C1=O (mixture of isomers) [Compound 1788] | 0 | 0 | 40 | 0 | 10 | 20 | 0 | 10 | 10 | 0 | 0 | 0 | 0 | 0 | 0 | 0 | 10 | 20 | 0 | 0 | pest or weed control at 250 g/ha [7]: 0%; pest or weed control at 15.625 g/ha [8]: 0%; pest or weed control at 62.5 g/ha [8]: 0%; pest or weed control at 250 g/ha [8]: 0%; plant injury at 15.625 g/ha (corn (Zea mays) [9]): 0%; plant injury at 62.5 g/ha (corn (Zea mays) [9]): 0%; plant injury at 250 g/ha (corn (Zea mays) [9]): 0%; pest or weed control at 15.625 g/ha [10]: 0%; pest or weed control at 62.5 g/ha [10]: 0%; pest or weed control at 250 g/ha [10]: 20%; pest or weed control at 15.625 g/ha [11]: 0%; pest or weed control at 62.5 g/ha [11]: 0%; pest or weed control at 250 g/ha [11]: 0%; pest or weed control at 15.625 g/ha [12]: 0%; pest or weed control at 62.5 g/ha [12]: 0%; pest or weed control at 250 g/ha [12]: 0%
